Values after ≈ are worked out from the molar mass of the structure shown.
Each compound was assayed on Candida glabrata (assay: MIC agar dilution, micro-organism 20 (3943)). Details: Candida glabrata 3943; 22 hrs.
Format: cell-based
Method in brief: (§1)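 Agar dilution in Isosensitest/CCEY agar with egg yolk and lysed horse blood; compounds as aqueous emulsions (myristyl and lauryl alcohol with 1-methyl-2-pyrrolidone and Tween 20). 1 µL spots of 1/15-diluted 0.5 McFarland suspensions, 37 °C aerobic, read at 22 and 48 h; MIC (mmol/L) is lowest concentration giving <10 colonies.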
For `CCCCCCCCCCCCCOCCOCCOCCOCCOCCOCCO` [C13E6, polyoxyethylene (6) tridecyl alcohol], the MIC was over 880 µM.

Same assay, conditions: Candida glabrata 3943; 48 hrs
`CCCCCCCCCCCCCOCCOCCOCCOCCOCCOCCO` [C13E6, polyoxyethylene (6) tridecyl alcohol] showed an MIC of over 880 µM.

Same assay, conditions: Nakaseomyces glabratus, 22 h, Candida glabrata 3943; 22 hrs; read-out: MIC
Compound `CCCCCCCCCCCCCCCCO` [C0, 1-Hexadecanol, reference compound] has an MIC of 880 µM (≈ 213 µg/mL).

Same assay, conditions: Nakaseomyces glabratus, 48 h, Candida glabrata 3943; 48 hrs; read-out: MIC
`CCCCCCCCCCCCCCCCO` [C0, 1-Hexadecanol, reference compound] gave an MIC of over 880 µM.

These compounds were tested on Staphylococcus epidermidis (assay: MIC agar dilution, micro-organism 14 (11047)). Details: Staphylococcus epidermidis 11047; 22 hrs.
Format: cell-based
Method in brief: as §1
In the case of `CCCCCCCCCCCCCOCCOCCOCCOCCOCCOCCO` [C13E6, polyoxyethylene (6) tridecyl alcohol], the MIC is reported as 110 µM (≈ 51.1 µg/mL).

Same assay, conditions: Staphylococcus epidermidis 11047; 22 hrs; read-out: MIC
`CCCCCCCCCCCCCCCCO` [C0, 1-Hexadecanol, reference compound] was tested, and the MIC was over 880 µM.

Same assay, conditions: Staphylococcus epidermidis 11047; 48 hrs
`CCCCCCCCCCCCCOCCOCCOCCOCCOCCOCCO` [C13E6, polyoxyethylene (6) tridecyl alcohol] showed an MIC of 110 µM (≈ 51.1 µg/mL).

Same assay, conditions: Staphylococcus epidermidis 11047; 48 hrs; read-out: MIC
In the case of `CCCCCCCCCCCCCCCCO` [C0, 1-Hexadecanol, reference compound], the MIC is reported as over 880 µM.

Each compound was assayed on Steptococcus pyogenes (assay: MIC agar dilution, micro-organism 11 (8306)). Details: 22 h, Steptococcus pyogenes 8306; 22 hrs; read-out: MIC.
Format: cell-based
Method in brief: as §1
Work on `CCCCCCCCCCCCCCCCO` [C0, 1-Hexadecanol, reference compound] yielded an MIC of 220 µM (≈ 53.3 µg/mL).

Same assay, conditions: 48 h, Steptococcus pyogenes 8306; 48 hrs; read-out: MIC
With `CCCCCCCCCCCCCCCCO` [C0, 1-Hexadecanol, reference compound] the MIC was 440 µM (≈ 107 µg/mL).

Same assay, conditions: Steptococcus pyogenes 8306; 22 hrs
In the case of `CCCCCCCCCCCCCOCCOCCOCCOCCOCCOCCO` [C13E6, polyoxyethylene (6) tridecyl alcohol], the MIC is reported as 55 µM (≈ 25.6 µg/mL).

Same assay, conditions: Steptococcus pyogenes 8306; 48 hrs
`CCCCCCCCCCCCCOCCOCCOCCOCCOCCOCCO` [C13E6, polyoxyethylene (6) tridecyl alcohol] gave an MIC of 55 µM (≈ 25.6 µg/mL).

The compounds below were run on Listeria monocytogenes (assay: MIC agar dilution, micro-organism 15 (11994)). Details: Listeria monocytogenes 11994; 22 hrs.
Format: cell-based
Method in brief: as §1
`CCCCCCCCCCCCCOCCOCCOCCOCCOCCOCCO` [C13E6, polyoxyethylene (6) tridecyl alcohol] showed an MIC of over 880 µM.

Same assay, conditions: Listeria monocytogenes 11994; 22 hrs; read-out: MIC
`CCCCCCCCCCCCCCCCO` [C0, 1-Hexadecanol, reference compound] showed an MIC of over 880 µM.

Same assay, conditions: Listeria monocytogenes 11994; 48 hrs
`CCCCCCCCCCCCCOCCOCCOCCOCCOCCOCCO` [C13E6, polyoxyethylene (6) tridecyl alcohol] was tested, and the MIC was over 880 µM.

Same assay, conditions: Listeria monocytogenes 11994; 48 hrs; read-out: MIC
`CCCCCCCCCCCCCCCCO` [C0, 1-Hexadecanol, reference compound] was tested, and the MIC was over 880 µM.
